Values quoted from earlier work as cited in PMC9268102, “Design, Synthesis and Biological Evaluation of 1,3,5-Triazine Derivatives Targeting hA1 and hA3 Adenosine Receptor” (Molecules, 2022).
Several values for one entry are separate records, joined by “and”; a condition that tells them apart may be missing. Identical values can stand only once.

Key:
hA1 AR = target: T1, hA1 AR (Homo sapiens, UniProt P30542); settings: read-out: Ki at hA1AR; cited from earlier work
T1 construct: host or cells: CHO-A1 (CHO cells expressing hA1 AR)
T1 sequence (P30542 1-326): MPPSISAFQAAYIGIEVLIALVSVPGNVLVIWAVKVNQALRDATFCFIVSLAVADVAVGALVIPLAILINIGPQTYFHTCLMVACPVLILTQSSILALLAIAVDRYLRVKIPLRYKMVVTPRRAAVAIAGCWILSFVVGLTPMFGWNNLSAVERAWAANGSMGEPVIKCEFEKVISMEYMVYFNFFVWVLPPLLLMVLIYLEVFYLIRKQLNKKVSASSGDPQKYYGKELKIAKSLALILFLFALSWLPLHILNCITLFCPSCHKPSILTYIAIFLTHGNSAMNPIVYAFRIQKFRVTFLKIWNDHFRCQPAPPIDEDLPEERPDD

hA2A AR = target: T2, hA2A AR (Homo sapiens, UniProt P29274); settings: cited from earlier work
T2 construct: expressed in transfected cells; host or cells: Hela-A2A cell line

hA3 AR = target: T3, hA3 AR (Homo sapiens, UniProt P0DMS8); parameters: expressed in transfected cells; host or cells: Hela-A3 cell line; method as in PMID 31280999, PMID 31780082, PMID 27531666; settings: read-out: Ki at hA3AR; cited from earlier work
T3 sequence (P0DMS8 1-318): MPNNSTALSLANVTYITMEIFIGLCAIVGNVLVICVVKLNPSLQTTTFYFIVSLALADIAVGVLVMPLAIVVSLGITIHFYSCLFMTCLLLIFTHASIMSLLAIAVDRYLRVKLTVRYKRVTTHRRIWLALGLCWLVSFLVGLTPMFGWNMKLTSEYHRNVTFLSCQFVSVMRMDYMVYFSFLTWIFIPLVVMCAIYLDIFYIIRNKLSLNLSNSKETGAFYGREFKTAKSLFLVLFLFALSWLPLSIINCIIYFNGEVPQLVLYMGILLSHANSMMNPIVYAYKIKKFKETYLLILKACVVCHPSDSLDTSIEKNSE

T2 sequence (P29274 whole entry): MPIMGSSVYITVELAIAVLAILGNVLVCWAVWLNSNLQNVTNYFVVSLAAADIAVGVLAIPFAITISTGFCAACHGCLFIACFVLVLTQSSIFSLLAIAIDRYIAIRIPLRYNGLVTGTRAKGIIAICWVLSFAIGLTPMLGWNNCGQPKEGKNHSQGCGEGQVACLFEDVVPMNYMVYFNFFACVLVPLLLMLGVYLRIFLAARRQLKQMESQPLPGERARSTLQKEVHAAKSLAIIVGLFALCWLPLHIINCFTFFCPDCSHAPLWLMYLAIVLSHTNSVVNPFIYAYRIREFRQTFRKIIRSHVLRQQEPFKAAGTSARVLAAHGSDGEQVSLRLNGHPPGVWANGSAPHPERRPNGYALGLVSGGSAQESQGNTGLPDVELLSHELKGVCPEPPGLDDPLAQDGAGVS

For `Nc1nc(NCCc2ccc(O)cc2)nc(Nc2nnc(-c3ccc(Cl)cc3)s2)n1` [Compound 5], the Ki (hA1 AR) is given as 520 nM, the “Selectivity hA1/hA2AAR” value (hA2A AR) is given as 11.66 and the Ki (hA2A AR; read-out: Ki at hA2AAR) is given as 44.6 nM.

For `Nc1nc(NCCc2ccc(O)cc2)nc(Nc2nc(-c3ccc(F)cc3)cs2)n1` [Compound 6], the Ki (hA1 AR) is given as 478 nM and the “Selectivity hA1/hA2AAR” value (hA2A AR) is given as 319 and 318.9.

For `CN1CCN(c2nc(-c3cccc(O)c3)nc3[nH]cnc23)CC1` [Compound 1], the Ki (hA1 AR) is listed as 6.8 nM and the Ki (hA3 AR) is listed as 6.3 nM.

For `Cc1ccsc1/C=C/c1nc(N)nc(-c2ccccc2O)n1` [Compound 3], the Ki (hA1 AR) is given as 32.9 nM and the “Selectivity hA1/hA2AAR” value (hA2A AR) is given as 9.5.
